Here are results for 16 compounds from patent US20240239767A1 (AstraZeneca AB, priority 2022, published 2024).

Assay [1] addresses GSK3b (Glycogen synthase kinase-3 beta) (Homo sapiens, UniProt P49841). Put plainly: Assay 6 - GSK3b assay (ThermoFisher, FRET Z-Lyte). In kind it is biochemical. Particulars: geometric mean; ATP Conc: 10.000 μM; read-out: Assay 6 (GSK3B FRET-Z-Lyte CR) GMean IC50 (μM) ATP Conc: 10.000. Here is the method: This assay measures the activity of the compounds at GSK3b (Glycogen synthase kinase-3 beta).
The test compounds were screened in 1% DMSO (final) in the well. For 10-point titrations, 3-fold serial dilutions are conducted from the starting concentration of 10 μM.
• Bar-coded Corning, low volume NBS, black 384-well plate • 1. 2.5 μL—4× Test Compound or 100 nL 100× plus 2.4 μL kinase buffer • 2. 5 μL—2× Peptide/Kinase Mixture • 3. 2.5 μL—4× ATP Solution • 4. 30-second plate shake • 5. 60-minute Kinase Reaction incubation at room temperature • 6. 5 μL—Development Reagent Solution • 7. 30-second plate shake • 8. 60-minute Development Reaction incubation at room temperature • 9. Read on fluorescence plate reader and analyse the data
In step 2, the 2× GSK3β (GSK3 beta)/Ser/Thr (Glycogen synthase kinase-3 beta/Serine/Threonine) 09 mixture is prepared in 50 mM HEPES (4-(2-hydroxyethyl)-1-piperazineethanesulfonic acid) pH 7.5, 0.01% BRIJ-35, 10 mM MgCl2, 1 mM EGTA (egtazic acid). The final 10 μL Kinase Reaction consists of 0.22-0.92 ng GSK3β (GSK3 beta) and 2 μM Ser/Thr 09 in 50 mM HEPES pH 7.5, 0.01% BRIJ-35, 10 mM MgCl2, 1 mM EGTA.
In step 3 the ATP Solution is diluted to a 4× working concentration in Kinase Buffer (50 mM HEPES pH 7.5, 0.01% BRIJ-35, 10 mM MgCl2, 1 mM EGTA).
In Step 6 the Development Reagent is diluted 1:512 in Development Buffer (10× Novel PKC Lipid Mix: 2 mg/mL Phosphatidyl Serine, 0.2 mg/mL DAG in 20 mM HEPES, pH 7.4, 0.3% CHAPS).
SelectScreen® Kinase Profiling Service uses XLfit from IDBS. The dose response curve is curve fit to model number 205 (sigmoidal dose-response model).

Assay [2] has as its target T1, PCSK9 (Homo sapiens, UniProt Q8NBP7, G670E/V474I). Put plainly: biochemical.
Target sequence in this assay (Q8NBP7 with tags, fused parts or gaps V474I/G670E): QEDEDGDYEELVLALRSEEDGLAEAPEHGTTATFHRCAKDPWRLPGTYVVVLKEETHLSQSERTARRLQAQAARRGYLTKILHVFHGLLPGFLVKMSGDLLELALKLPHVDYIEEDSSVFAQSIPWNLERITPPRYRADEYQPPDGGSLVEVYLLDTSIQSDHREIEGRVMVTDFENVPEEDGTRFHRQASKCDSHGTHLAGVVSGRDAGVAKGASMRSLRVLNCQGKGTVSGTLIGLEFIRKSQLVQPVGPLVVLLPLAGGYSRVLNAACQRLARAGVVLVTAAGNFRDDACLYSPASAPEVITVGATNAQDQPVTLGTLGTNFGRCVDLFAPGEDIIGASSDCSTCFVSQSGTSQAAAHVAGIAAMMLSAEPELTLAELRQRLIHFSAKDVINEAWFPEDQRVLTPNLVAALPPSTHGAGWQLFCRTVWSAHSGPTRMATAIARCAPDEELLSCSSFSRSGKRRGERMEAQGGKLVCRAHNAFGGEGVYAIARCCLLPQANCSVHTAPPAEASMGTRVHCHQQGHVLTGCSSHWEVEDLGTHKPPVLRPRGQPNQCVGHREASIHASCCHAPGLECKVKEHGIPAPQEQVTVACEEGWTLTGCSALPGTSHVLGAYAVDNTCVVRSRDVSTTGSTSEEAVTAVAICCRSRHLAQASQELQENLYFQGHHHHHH
The target in assay [3] is T1, PCSK9. Put plainly: cell-based.
Target sequence in this assay (Q8NBP7 31-152): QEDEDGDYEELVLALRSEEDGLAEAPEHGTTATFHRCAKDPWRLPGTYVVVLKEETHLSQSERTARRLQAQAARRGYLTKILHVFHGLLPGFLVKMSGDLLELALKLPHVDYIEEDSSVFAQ
Target sequence in this assay (Q8NBP7 153-692 V474I/G670E): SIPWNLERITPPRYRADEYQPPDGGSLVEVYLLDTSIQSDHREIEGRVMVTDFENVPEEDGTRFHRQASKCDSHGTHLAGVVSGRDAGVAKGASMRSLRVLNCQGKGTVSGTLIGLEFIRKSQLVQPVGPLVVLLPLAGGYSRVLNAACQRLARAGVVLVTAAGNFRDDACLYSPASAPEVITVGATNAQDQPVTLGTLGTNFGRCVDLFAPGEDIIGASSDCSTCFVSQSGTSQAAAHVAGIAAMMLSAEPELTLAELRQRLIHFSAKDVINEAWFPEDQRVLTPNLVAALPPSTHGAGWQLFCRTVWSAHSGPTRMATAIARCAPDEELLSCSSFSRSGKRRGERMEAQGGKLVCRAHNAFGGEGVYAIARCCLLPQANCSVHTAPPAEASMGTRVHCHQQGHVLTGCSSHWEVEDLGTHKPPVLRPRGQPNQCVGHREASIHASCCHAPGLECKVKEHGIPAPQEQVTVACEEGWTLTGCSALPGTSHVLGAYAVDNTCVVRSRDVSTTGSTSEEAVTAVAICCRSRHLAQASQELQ
Source text: This assay measures for PCSK9 antagonist activity based on a test compound's capacity to restore LDL-C uptake in HepG2 cells. The assay is based on exogenous PCSK9 and LDL-C complexed with a pH-sensitive dye. Outside the cells, at neutral pH, the pHrodo Red-LDL is dimly fluorescent but upon LDLR mediated endocytosis it fluoresces brightly. PCSK9 traffics the LDLR to intracellular degradation and reduces uptake of LDL-C. Inhibition of PCSK9 reduces LDLR degradation and the increased LDL-C uptake is quantified by fluorescence microscopy.
Cell medium: MEM supplemented with 10% FBS, 1× NEAA and Sodium Pyruvate
Assay medium: OptiMem supplemented with penicillin/streptomycin
Cells: HepG2 (ATCC #HB-8065)
Cryopreserved HepG2 cells were thawed in assay medium and centrifuged for 5 min at 250 g. Supernatant was discarded and the cell pellet resuspended in cell medium and counted with a Nucleocounter. Cells were again centrifuged 5 min at 250 g and the pellet was resuspended to 500000 cells/mL in assay medium. • 2. 20 μL of above cell mix was dispensed into black pclear TC treated 384 well plates with Multidrop Combi and left at room temperature for 20 minutes. • 3. Plates were incubated at 37° C., 5% CO2 for 24 h
Test compounds were prepared in concentration response in DMSO with a half-log dilution factor in DMSO in Echo 384 LDV plates starting at 10 mM. • 2. 30 nL of above test compounds were dispensed with Echo 655 to cells for a top concentration of 10 μM • 3. […] Plates were incubated at 37° C., 5% CO2 for 24 h
10 μL pHrodo Red-LDL in assay medium was dispensed to cells with Multidrop Combi for 6 μg/mL • 2. Plates were incubated at 37° C., 5% CO2 and imaged with the Incucyte S3 after 4 h and 24 h
Image data was processed using Incucyte 2021, a software to identify cells and red fluorescent intensity. Screener was used to further process data. Data was normalized as % effect of the signal between median values of the on-plate controls of DMSO and 100 nM Evolocumab according to the formula % effect=−100*(x−DMSO)/(Evolocumab−DMSO) where x equals the measured signal. Concentration response data of the normalized values were fitted using a four-parameter logistic fit.
The target of assay [4] is T2, potassium ion channel hERG (human Ether-á-go-go-Related Gene) (Homo sapiens, UniProt Q12809).
T2 construct: expressed in transfected cells; host or cells: Chinese hamster ovary K1 (CHO)
Put plainly: Assay 5 - hERG assay (SyncroPatch 384PE patch clamp, CHO cells). In kind it is cell-based. Particulars: geometric mean, CHO cells over-expressing hERG, read-out: Assay 5 (hERG Hu CHO IF EPh CR-Syncro) GMean IC50. How it is done:
Assay 5—hERG Assay (Human Ether-á-go-go-Related Gene)
This assay (human Ether-á-go-go-Related Gene) measures activity of the compounds at the potassium ion channel hERG (human Ether-á-go-go-Related Gene).
Experiments were performed on the SyncroPatch 384PE high throughput patch clamp platform at room temperature and medium resistance chips with 4 patch holes per site. Chinese hamster ovary K1 (CHO) cell lines over-expressing the ion channel of choice (hERG) were used in assay-ready format and kept in liquid nitrogen or were used from live culture. Cells were either thawed and diluted in HBSS or were detached from flasks and resuspended in HBSS. HBSS comprised 140 mM NaCl, 4 mM KCl, 10 mM HEPES and 5 mM Glucose (pH 7.4). The internal patch clamp solution was KF 120 mM, KCl 20 mM, HEPES 10 mM, EGTA 10 mM, and 25 μM Escin (pH 7.2). After the sealing process was complete, the external solution was exchanged for external patch clamp solution comprising NaCl 80 mM, KCl 4 mM, HEPES 10 mM, CaCl2 2 mM, MgCl2 1 mM, glucose 5 mM, and NMDG 60 mM (pH 7.4). All solutions were stored at room temperature, except Escin, which was stored at 4° C. All test compounds were dispensed in greiner-bio 384 well plates and tested in a 6 point cumulative assay (final DMSO concentration 0.33%). Only wells that passed previously agreed acceptance criteria for this platform were used in this analysis (30 MegaOhm seal resistance, Z prime>0.4 and current size>0.2 nA).
(In general: The hERG channel carries a current that helps repolarise heart muscle cells.)

GSK3b (Glycogen synthase kinase-3 beta), sequence (P49841 whole entry): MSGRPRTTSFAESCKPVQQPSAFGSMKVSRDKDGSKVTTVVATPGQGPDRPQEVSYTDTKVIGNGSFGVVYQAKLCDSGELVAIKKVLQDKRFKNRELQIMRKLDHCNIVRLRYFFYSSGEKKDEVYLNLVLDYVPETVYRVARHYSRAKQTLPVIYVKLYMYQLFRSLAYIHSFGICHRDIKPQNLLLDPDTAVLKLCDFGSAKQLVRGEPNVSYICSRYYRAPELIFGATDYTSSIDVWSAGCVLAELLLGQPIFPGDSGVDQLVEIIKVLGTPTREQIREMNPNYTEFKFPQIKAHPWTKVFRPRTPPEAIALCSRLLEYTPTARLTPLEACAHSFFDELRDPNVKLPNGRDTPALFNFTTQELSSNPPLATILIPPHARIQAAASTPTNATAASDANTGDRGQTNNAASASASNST
T2 sequence (Q12809 whole entry): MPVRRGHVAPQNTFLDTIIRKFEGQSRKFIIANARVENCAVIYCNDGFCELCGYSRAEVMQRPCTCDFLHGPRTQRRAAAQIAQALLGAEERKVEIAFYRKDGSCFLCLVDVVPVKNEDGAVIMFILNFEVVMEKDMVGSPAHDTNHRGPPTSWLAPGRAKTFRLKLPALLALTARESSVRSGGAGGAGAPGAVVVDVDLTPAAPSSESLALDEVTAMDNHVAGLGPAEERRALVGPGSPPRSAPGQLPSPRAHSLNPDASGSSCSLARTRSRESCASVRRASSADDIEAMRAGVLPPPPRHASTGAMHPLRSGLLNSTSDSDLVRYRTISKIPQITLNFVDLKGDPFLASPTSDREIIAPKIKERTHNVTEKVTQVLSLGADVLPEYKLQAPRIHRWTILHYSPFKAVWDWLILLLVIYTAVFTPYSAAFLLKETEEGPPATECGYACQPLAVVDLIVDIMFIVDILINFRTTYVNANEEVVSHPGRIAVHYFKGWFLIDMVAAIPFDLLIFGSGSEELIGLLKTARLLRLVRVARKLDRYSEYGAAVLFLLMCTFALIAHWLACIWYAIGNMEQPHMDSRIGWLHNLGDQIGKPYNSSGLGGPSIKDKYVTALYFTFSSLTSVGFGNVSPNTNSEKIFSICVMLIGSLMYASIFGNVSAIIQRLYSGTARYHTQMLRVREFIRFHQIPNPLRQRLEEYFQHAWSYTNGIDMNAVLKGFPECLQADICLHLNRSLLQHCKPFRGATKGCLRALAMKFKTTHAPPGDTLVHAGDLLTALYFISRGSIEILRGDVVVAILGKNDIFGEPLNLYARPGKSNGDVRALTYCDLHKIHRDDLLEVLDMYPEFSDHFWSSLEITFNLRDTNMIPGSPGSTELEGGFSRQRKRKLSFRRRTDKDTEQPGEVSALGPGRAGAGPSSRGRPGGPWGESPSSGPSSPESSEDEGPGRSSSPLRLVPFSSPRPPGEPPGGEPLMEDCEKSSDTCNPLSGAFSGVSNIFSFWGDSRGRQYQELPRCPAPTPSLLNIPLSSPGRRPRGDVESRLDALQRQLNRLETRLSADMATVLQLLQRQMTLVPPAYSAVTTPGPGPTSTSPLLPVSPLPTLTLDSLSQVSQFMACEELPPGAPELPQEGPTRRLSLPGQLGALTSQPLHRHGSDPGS

By IC50 is commonly meant the concentration at which inhibition is half-maximal. As to `N#Cc1ccc(=O)n(-c2ccc(N[C@H]3CC[C@H](Nc4nc5cccnc5s4)C3)nc2)c1` [Example 26, 2-Oxo-6′-(((1S,3S)-3-(thiazolo[5,4-b]pyridin-2-ylamino)cyclopentyl)amino)-2H-[1,3′-bipyridine]-5-carbonitrile], the IC50 in assay [1] is above 10 µM; in assay [2], 6.8 nM; in assay [3], 168 nM; in assay [4] it was 19700 nM.
On to `O=c1ccccn1-c1ccc(N[C@H]2CC[C@H](Nc3nc4cc(Cl)cnc4[nH]3)C2)nc1` [Example 47, 6′-(((1S,3S)-3-((6-Chloro-3H-imidazo[4,5-b]pyridin-2-yl)amino)cyclopentyl)amino)-2H-[1,3′-bipyridin]-2-one], for which the IC50 was 0.331 µM in assay [1], 1.6 nM in assay [2], 64 nM in assay [3] and above 40000 nM in assay [4].
The corresponding values for `Cn1c(=O)n(-c2ccc(N[C@H]3CC[C@H](Nc4nc5cccnc5[nH]4)C3)nc2)c2ccccc21` [Example 36, 1-(6-(((1S,3S)-3-((3H-Imidazo[4,5-b]pyridin-2-yl)amino)cyclopentyl)amino)pyridin-3-yl)-3-methyl-1,3-dihydro-2H-benzo[d]imidazol-2-one] are above 10 µM, 0.6 nM, 60 nM and 25800 nM.
`O=c1ccccn1-c1ccc(N[C@H]2CC[C@H](Nc3nc4cc(Br)cnc4[nH]3)C2)nc1` [Example 54, 6′-(((1S,3S)-3-((6-Bromo-3H-imidazo[4,5-b]pyridin-2-yl)amino)cyclopentyl)amino)-2H-[1,3′-bipyridin]-2-one]: the IC50 was 0.306 µM in assay [1], 0.7 nM in assay [2], 41 nM in assay [3] and above 40100 nM in assay [4].
Regarding `COc1cnc2[nH]c(N[C@H]3CC[C@H](Nc4ccc(-n5ccccc5=O)cn4)C3)nc2c1` [Example 57, 6′-(((1S,3S)-3-((6-Methoxy-3H-imidazo[4,5-b]pyridin-2-yl)amino)cyclopentyl)amino)-2H-[1,3′-bipyridin]-2-one], the IC50 is 5.45 µM in assay [1], 4.3 nM in assay [2], 66 nM in assay [3] and above 40000 nM in assay [4].
As for `COc1ccc(=O)n(-c2ccc(N[C@H]3CC[C@H](Nc4nc5cccnc5[nH]4)C3)nc2)c1` [Example 72, 6′-(((1S,3S)-3-((3H-Imidazo[4,5-b]pyridin-2-yl)amino)cyclopentyl)amino)-5-methoxy-2H-[1,3′-bipyridin]-2-one], the half-maximal inhibitory concentration (IC50) in assay [1] was 0.01 µM; in assay [2] it was 5 nM; in assay [3], 163 nM; in assay [4], above 40000 nM.
For `CSc1cnc2[nH]c(N[C@H]3CC[C@H](Nc4ccc(-n5ccccc5=O)cn4)C3)nc2c1` [Example 59, 6′-(((1S,3S)-3-((6-(Methylthio)-3H-imidazo[4,5-b]pyridin-2-yl)amino)cyclopentyl)amino)-2H-[1,3′-bipyridin]-2-one] the same measures were 0.794 µM, 3.7 nM, 106 nM and above 13500 nM.
The corresponding values for `O=c1ccccn1-c1ccc(N[C@H]2CC[C@H](Nc3nc4cc(OC(F)(F)F)cnc4[nH]3)C2)nc1` [Example 51, 6′-(((1S,3S)-3-((6-(Trifluoromethoxy)-3H-imidazo[4,5-b]pyridin-2-yl)amino)cyclopentyl)amino)-2H-[1,3′-bipyridin]-2-one] are 1.52 µM, 2.5 nM, 49 nM and 30000 nM.
As for `Cc1cccn(-c2ccc(N[C@H]3CC[C@H](Nc4nc5cccnc5s4)C3)nc2)c1=O` [Example 22, 3-Methyl-6′-(((1S,3S)-3-(thiazolo[5,4-b]pyridin-2-ylamino)cyclopentyl)amino)-2H-[1,3′-bipyridin]-2-one], the 50% inhibitory concentration (IC50) in assay [1] was above 10 µM; in assay [2], 1.2 nM; in assay [3], 54 nM; in assay [4], 25700 nM.
The corresponding values for `N#Cc1ccc2nc(N[C@H]3CC[C@H](Nc4ccc(-n5ccccc5=O)cn4)C3)oc2c1` [Example 5, 2-(((1S,3S)-3-((2-Oxo-2H-[1,3′-bipyridin]-6′-yl)amino)cyclopentyl)amino)benzo[d]oxazole-6-carbonitrile] are 5.52 µM, 8.9 nM, 1720 nM and 6000 nM.
For `CN1CC(=O)N(c2ccc(N[C@H]3CC[C@H](Nc4nc5cccnc5[nH]4)C3)nc2)C1=O` [Example 38, 3-(6-(((1S,3S)-3-((3H-Imidazo[4,5-b]pyridin-2-yl)amino)cyclopentyl)amino)pyridin-3-yl)-1-methylimidazolidine-2,4-dione] the same measures were above 10 µM, 5.7 nM, 158 nM and above 40000 nM.
Turning to `O=c1ccccn1-c1ccc(N[C@H]2CC[C@H](Nc3nc4nccnc4[nH]3)C2)nc1` [Example 80, 6′-(((1S,3S)-3-((1H-Imidazo[4,5-b]pyrazin-2-yl)amino)cyclopentyl)amino)-2H-[1,3′-bipyridin]-2-one], the half-inhibitory concentration (IC50) in assay [1] is 0.305 µM; in assay [2], 5.1 nM; in assay [3], 158 nM; in assay [4] it was above 40000 nM.
As for `O=c1ccccn1-c1ccc(N[C@H]2CC[C@H](Nc3nc4cc(C(F)(F)F)cnc4[nH]3)C2)nc1` [Example 62, 6′-(((1S,3S)-3-((6-(Trifluoromethyl)-3H-imidazo[4,5-b]pyridin-2-yl)amino)cyclopentyl)amino)-2H-[1,3′-bipyridin]-2-one], the 50% inhibitory concentration (IC50) in assay [1] was 0.153 µM; in assay [2], 2.2 nM; in assay [3], 89 nM; in assay [4], above 40000 nM.
For `COc1ccc(=O)n(-c2ccc(N[C@H]3CC[C@H](Nc4nc5cccnc5o4)C3)nc2)c1` [Example 14, 5-Methoxy-6′-(((1S,3S)-3-(oxazolo[5,4-b]pyridin-2-ylamino)cyclopentyl)amino)-2H-[1,3′-bipyridin]-2-one] the same measures were 0.423 µM, 25.5 nM, 632 nM and above 40000 nM.
Turning to `O=c1ccc(Cl)cn1-c1ccc(N[C@H]2CC[C@H](Nc3nc4cccnc4[nH]3)C2)nc1` [Example 71, 6′-(((1S,3S)-3-((3H-Imidazo[4,5-b]pyridin-2-yl)amino)cyclopentyl)amino)-5-chloro-2H-[1,3′-bipyridin]-2-one], the concentration for half-maximal inhibition (IC50) is 2.83 µM in assay [1], 2.6 nM in assay [2], 123 nM in assay [3] and above 40000 nM in assay [4].
With `O=c1ccccn1-c1ccc(N[C@H]2CC[C@H](Nc3nc4cc(F)cnc4[nH]3)C2)nc1` [Example 48, 6′-(((1S,3S)-3-((6-Fluoro-3H-imidazo[4,5-b]pyridin-2-yl)amino)cyclopentyl)amino)-2H-[1,3′-bipyridin]-2-one], the IC50 in assay [1] was 0.805 µM; in assay [2], 2.1 nM; in assay [3], 100 nM; in assay [4], above 40000 nM.
